Measured values as given in patent US6455550B1, “N-alkanoylphenylalanine derivatives” (Hoffmann-La Roche Inc., priority 1997, dated 2002).

biological target: T1, VLA-4 (α4β1 integrin) binding to immobilized VCAM-1 (Homo sapiens, UniProt P05556+P13612); assay: VLA-4/VCAM-1 Screening Assay (solid-phase, dual antibody ELISA); conditions: not given
T1 construct: followed by 10 μl of Ramos cell-derived VLA-4; endogenous in cells; host or cells: Ramos cells (VLA-4 preparation derived from the cells)
Procedure: VLA-4 antagonist activity, defined as ability to compete for binding to immobilized VCAM-1 was quantitated using a solid-phase, dual antibody ELISA. VLA-4 (α4β1 integrin) bound to VCAM-1 was detected by a complex of anti-integrin β1 antibody: HRP-conjugated anti-mouse IgG: chromogenic substrate (K-Blue). Initially, this entailed coating 96 well plates (Nunc Maxisorp) with recombinant human VCAM-1 (0.4 μg in 100 μl PBS), sealing each plate and then allowing the plates to stand at 4° C for Å18 hr. […] On the day of assay, all plates were washed twice with VCAM Assay Buffer (200 μl/well of 50 mM Tris-HCl, 100 mM NaCl, 1 mM MnCl2, 0.05% Tween 20; pH 7.4). Test compounds were dissolved in 100% DMSO and then diluted 1:20 in VCAM Assay Buffer supplemented with 1 mg/mL BSA (i.e., final DMSO=5%). […] 100 μl per well of each dilution was added to the VCAM-coated plates, followed by 10 μl of Ramos cell-derived VLA-4. These plates were sequentially mixed on a platform shaker for 1 min, incubated for 2 hr at 37° C. and then washed four times with 200 μl/well VCAM Assay Buffer. 100 μl of mouse anti-human integrin β1 antibody was added to each well (0.6 μg/mL in VCAM Assay Buffer+1 mg/mL BSA) and allowed to incubate for 1 hr at 37° C. At the conclusion of this incubation period, all plates were washed four times with VCAM Assay Buffer (200 μl/well). A corresponding second antibody, HRP-conjugated goat anti-mouse IgG (100 μl per well @1:800 dilution in VCAM Assay Buffer+1 mg/mL BSA), was then added to each well, followed by a 1 hr incubation at room temperature and concluded by three washes (200 μl/well) with VCAM Assay Buffer. Color development was initiated by addition of 100 μl K-Blue per well (15 min incubation, room temp) and terminated by addition of 100 μl Red Stop Buffer per well. […] Results were calculated as % inhibition of total binding (i.e., VLA-4+VCAM-1 in the absence of test compound).

T1 sequence (P13612 34-1032): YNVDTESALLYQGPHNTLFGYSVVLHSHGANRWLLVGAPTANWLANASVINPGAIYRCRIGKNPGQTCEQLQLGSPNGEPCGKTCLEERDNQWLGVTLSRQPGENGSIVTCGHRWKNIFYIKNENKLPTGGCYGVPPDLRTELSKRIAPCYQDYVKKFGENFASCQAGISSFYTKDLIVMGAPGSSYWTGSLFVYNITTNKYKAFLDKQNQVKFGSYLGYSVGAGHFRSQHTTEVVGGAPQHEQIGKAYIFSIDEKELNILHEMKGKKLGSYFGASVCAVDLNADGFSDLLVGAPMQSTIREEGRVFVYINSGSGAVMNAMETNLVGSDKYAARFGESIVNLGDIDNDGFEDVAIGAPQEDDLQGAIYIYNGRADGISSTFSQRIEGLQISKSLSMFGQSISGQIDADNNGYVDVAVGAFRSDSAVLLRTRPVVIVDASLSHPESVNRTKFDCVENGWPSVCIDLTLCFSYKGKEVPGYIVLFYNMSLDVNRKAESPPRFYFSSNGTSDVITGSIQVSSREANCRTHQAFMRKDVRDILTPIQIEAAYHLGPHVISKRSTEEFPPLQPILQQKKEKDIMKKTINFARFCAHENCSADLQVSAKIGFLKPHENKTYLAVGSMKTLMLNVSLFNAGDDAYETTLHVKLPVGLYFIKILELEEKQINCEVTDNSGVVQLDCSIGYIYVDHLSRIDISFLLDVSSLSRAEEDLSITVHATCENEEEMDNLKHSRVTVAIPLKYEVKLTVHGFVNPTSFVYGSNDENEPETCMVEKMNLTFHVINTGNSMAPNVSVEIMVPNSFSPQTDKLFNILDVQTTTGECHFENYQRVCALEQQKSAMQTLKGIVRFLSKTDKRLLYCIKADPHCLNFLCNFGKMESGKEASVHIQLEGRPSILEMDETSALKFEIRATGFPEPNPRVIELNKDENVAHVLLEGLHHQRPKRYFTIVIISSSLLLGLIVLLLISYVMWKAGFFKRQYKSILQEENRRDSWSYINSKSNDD
T1 sequence (P05556 21-798): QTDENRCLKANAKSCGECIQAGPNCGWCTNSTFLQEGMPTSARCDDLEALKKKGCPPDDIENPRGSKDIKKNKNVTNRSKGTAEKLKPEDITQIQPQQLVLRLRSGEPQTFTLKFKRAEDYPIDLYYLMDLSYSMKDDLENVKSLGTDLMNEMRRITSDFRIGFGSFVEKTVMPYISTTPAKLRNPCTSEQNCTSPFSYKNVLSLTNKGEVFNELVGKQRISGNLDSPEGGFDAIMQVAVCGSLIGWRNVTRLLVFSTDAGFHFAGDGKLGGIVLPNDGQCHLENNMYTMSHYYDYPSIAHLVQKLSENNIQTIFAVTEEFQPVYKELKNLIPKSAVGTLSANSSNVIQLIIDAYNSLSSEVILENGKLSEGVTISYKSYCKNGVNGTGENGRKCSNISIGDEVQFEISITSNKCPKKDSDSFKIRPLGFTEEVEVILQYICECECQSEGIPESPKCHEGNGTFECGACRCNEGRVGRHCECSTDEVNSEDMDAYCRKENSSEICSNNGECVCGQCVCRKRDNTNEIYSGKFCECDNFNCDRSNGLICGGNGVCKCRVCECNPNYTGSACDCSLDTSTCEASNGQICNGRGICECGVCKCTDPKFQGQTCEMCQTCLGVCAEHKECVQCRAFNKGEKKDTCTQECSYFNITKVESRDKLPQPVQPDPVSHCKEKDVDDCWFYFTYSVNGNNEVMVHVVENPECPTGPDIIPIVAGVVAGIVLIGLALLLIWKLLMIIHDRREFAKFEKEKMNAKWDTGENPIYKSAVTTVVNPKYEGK

| inhibition at 0.01 µM | inhibition at 0.1 µM | Molecule |
| --- | --- | --- |
| 77% | 95% | COc1ccc(C2(C(=O)N[C@@H](Cc3ccc(NC(=O)c4ccnc5ccccc45)cc3)C(=O)O)CCCCC2)cc1 [Example 79] |
| 49% | 86% | CCCC(C)(CC)C(=O)N[C@@H](Cc1ccc(NC(=O)c2ccnc3ccccc23)cc1)C(=O)O (stereo partly shown) [Example 68] |
| 72% | 92% | O=C(Nc1ccc(C[C@H](NC(=O)C23CC4CC(CC(C4)C2)C3)C(=O)O)cc1)c1ccnc2ccccc12 [Example 65] |
| 49% | 87% | CCC(C(=O)N[C@@H](Cc1ccc(NC(=O)c2ccnc3ccccc23)cc1)C(=O)O)c1ccccc1 (stereo partly shown) [Example 69] |
| 67% | 93% | O=C(Nc1ccc(C[C@H](NC(=O)C2(c3ccccc3)CCCCC2)C(=O)O)cc1)c1ccnc2ccccc12 [Example 77] |
| 73% | 93% | CC(C)C(C(=O)N[C@@H](Cc1ccc(NC(=O)c2ccnc3ccccc23)cc1)C(=O)O)c1ccccc1 (stereo partly shown) [Example 76] |

| Molecule | inhibition at 0.01 µM | inhibition at 0.1 µM |
| --- | --- | --- |
| O=C(Nc1ccc(C[C@H](NC(=O)C2(c3ccccc3)CCCC2)C(=O)O)cc1)c1ccnc2ccccc12 [Example 75] | 68% | 92% |

same assay, conditions: IC50 nM, Ramos cell-derived VLA-4, recombinant human VCAM-1 coated plates, 2 hr at 37° C.

| Molecule | IC50 |
| --- | --- |
| COc1cccc(CC2(C(=O)N[C@@H](Cc3ccc(NC(=O)c4c(Cl)cccc4Cl)cc3)C(=O)O)CCCC2)c1 [Example 52] | 1.1 nM |

same assay, conditions: Ramos cell-derived VLA-4, recombinant human VCAM-1 coated plates, 2 hr at 37° C.; read-out: IC50

| IC50 | Molecule |
| --- | --- |
| 63 nM | COCCC1(C(=O)NC(Cc2ccc(N3C(=O)C(CC(C)C)N(C(C)=O)C3c3ccc(OC)cc3)cc2)C(=O)O)CCCC1 (single isomer, unassigned) [Example 131] |
| 10.4 nM | COc1ccc(C2(C(=O)N[C@@H](Cc3ccc(NC(=O)c4ccc(F)cc4C(F)(F)F)cc3)C(=O)O)CCCCC2)cc1 [Example 104] |
| 19 nM | COCCC1(C(=O)NC(Cc2ccc(N3C(=O)C(CC(C)C)N(C(C)=O)C3c3ccc(OC)cc3)cc2)C(=O)O)CCCC1 (single isomer, unassigned) [Example 137] |
| 2.1 nM | CC1(C(=O)N[C@@H](Cc2ccc(NC(=O)CCN3CCCCC3)cc2)C(=O)O)CC1(Cl)Cl (stereo partly shown) [Example 99] |
| 3.9 nM | CCCCC(C)(CC)C(=O)N[C@@H](Cc1ccc(NC(=O)c2c(Cl)cccc2Cl)cc1)C(=O)O (stereo partly shown) [Example 88] |
| 17.4 nM | COc1ccc(CC2(C(=O)N[C@@H](Cc3ccc(NC(=O)c4ccc(F)cc4C(F)(F)F)cc3)C(=O)O)CCCC2)cc1 [Example 96] |
| 0.35 nM | N#CC1(c2ccccc2)CCN(C(=O)Nc2ccc(C[C@H](NC(=O)C34CC5CC(CC(C5)C3)C4)C(=O)O)cc2)CC1 [Example 118] |
| 81 nM | CCCCC(C)(CC)C(=O)N[C@@H](Cc1ccc(NC(=O)c2ccc(F)cc2C(F)(F)F)cc1)C(=O)O (stereo partly shown) [Example 89] |
| 9.4 nM | CCCCC(CC)C(=O)NCCC1(C(=O)N[C@@H](Cc2ccc(NC(=O)c3c(Cl)cccc3Cl)cc2)C(=O)O)CCCC1 (stereo partly shown) [Example 161] |
| 1.1 nM | O=C(Nc1ccc(C[C@H](NC(=O)C23CC4CC(CC(C4)C2)C3)C(=O)O)cc1)c1c(Cl)cccc1Cl [Example 83] |
| 4.4 nM | O=C(Nc1ccc(CC(NC(=O)C23CC4CC(CC(C4)C2)C3)C(=O)O)cc1)c1ccc(F)cc1C(F)(F)F (stereo not shown) [Example 84] |
| 1.2 nM | COc1ccc(C2(C(=O)N[C@@H](Cc3ccc(NC(=O)c4ccnc5ccccc45)cc3)C(=O)O)CCCCC2)cc1 [Example 79] |
| 2.1 nM | COc1ccc(C2(C(=O)N[C@@H](Cc3ccc(NC(=O)N4CCC(C#N)(c5ccccc5)CC4)cc3)C(=O)O)CCCCC2)cc1 [Example 122] |
| 0.83 nM | COc1ccc(C2(C(=O)N[C@@H](Cc3ccc(NC(=O)c4cc([N+](=O)[O-])ccc4C)cc3)C(=O)O)CCCCC2)cc1 [Example 105] |
| 0.73 nM | COCCC1(C(=O)NC(Cc2ccc(N3C(=O)C(CC(C)C)N(C(C)=O)C3c3ccc(OC)cc3)cc2)C(=O)O)CCCC1 (single isomer, unassigned) [Example 136] |
| 9.2 nM | Cn1nc(C(C)(C)C)cc1C(=O)NCCC1(C(=O)N[C@@H](Cc2ccc(NC(=O)c3c(Cl)cccc3Cl)cc2)C(=O)O)CCCC1 [Example 167] |
| 5 nM | O=C(Nc1ccc(C[C@H](NC(=O)C2(Cc3ccccc3)CCCC2)C(=O)O)cc1)c1c(Cl)cccc1Cl [Example 37, 4-[[(2,6-Dichlorophenyl)carbonyl]amino]-N-[[1-(phenylmethyl)cyclopentyl]carbonyl]-L-phenylalanine] |
| 1.05 nM | COCC1(C(=O)NC(Cc2ccc(NC(=O)c3c(Cl)cccc3Cl)cc2)C(=O)O)CCCC1 (stereo not shown) [Example 60] |

| IC50 | Molecule |
| --- | --- |
| 22.7 nM | Cc1cc(C)c(S(=O)(=O)Nc2ccc(C[C@H](NC(=O)C34CC5CC(CC(C5)C3)C4)C(=O)O)cc2)c(C)c1 [Example 115, N-[(1-Adamantyl)carbonyl]-4-[[(2,4,6-trimethylphenyl)sulfonyl]amino]-L-phenylalanine] |
| 38 nM | COCCC1(C(=O)NC(Cc2ccc(N3C(=O)C(CC(C)C)N(C(C)=O)C3c3ccc(Cl)cc3)cc2)C(=O)O)CCCC1 (single isomer, unassigned) [Example 139] |
| 8.2 nM | CCCC(C)(CC)C(=O)N[C@@H](Cc1ccc(NC(=O)c2ccnc3ccccc23)cc1)C(=O)O (stereo partly shown) [Example 68] |
| 6.6 nM | COCCC1(C(=O)NC(Cc2ccc(N3C(=O)C(CC(C)C)N(C(C)=O)C3c3ccc(OC)cc3)cc2)C(=O)O)CCCC1 (single isomer, unassigned) [Example 130] |
| 60 nM | COCCC1(C(=O)NC(Cc2ccc(N3C(=O)C(CC(C)C)N(C(C)=O)C3c3ccc(Cl)cc3)cc2)C(=O)O)CCCC1 (single isomer, unassigned) [Example 133] |
| 4.7 nM | CC1(C)C2CCC1(C(=O)NC(Cc1ccc(NC(=O)c3c(Cl)cccc3Cl)cc1)C(=O)O)C(=O)C2 (stereo not shown) [Example 49] |
| 2.4 nM | O=C(Nc1ccc(C[C@H](NC(=O)C23CC4CC(CC(C4)C2)C3)C(=O)O)cc1)c1ccnc2ccccc12 [Example 65] |
| 0.42 nM | COCCC1(C(=O)NC(Cc2ccc(N3C(=O)C(CC(C)C)N(C(C)=O)C3c3ccc(Cl)cc3)cc2)C(=O)O)CCCC1 (single isomer, unassigned) [Example 138] |
| 3 nM | N#CC1(C(=O)N[C@@H](Cc2ccc(NC(=O)CCN3CCCCC3)cc2)C(=O)O)CCCC1 [Example 92] |
| 5.8 nM | CCC(C(=O)N[C@@H](Cc1ccc(NC(=O)c2ccnc3ccccc23)cc1)C(=O)O)c1ccccc1 (stereo partly shown) [Example 69] |
| 5.6 nM | O=C(Nc1ccc(C[C@H](NC(=O)C2(c3ccccc3)CCCCC2)C(=O)O)cc1)c1ccnc2ccccc12 [Example 77] |
| 6.8 nM | CC(=O)N[C@@H](Cc1ccc(O)cc1)C(=O)Nc1ccc(C[C@H](NC(=O)C23CC4CC(CC(C4)C2)C3)C(=O)O)cc1 [Example 86] |
| 0.85 nM | COc1ccc(C2(C(=O)N[C@@H](Cc3ccc(N4C(=O)[C@H](C)N(C)C4=O)cc3)C(=O)O)CCCCC2)cc1 [Example 143] |
| 4.6 nM | CC(C)C(C(=O)N[C@@H](Cc1ccc(NC(=O)c2ccnc3ccccc23)cc1)C(=O)O)c1ccccc1 (stereo partly shown) [Example 76] |
| 11 nM | O=C(NCCC1(C(=O)N[C@@H](Cc2ccc(NC(=O)c3c(Cl)cccc3Cl)cc2)C(=O)O)CCCC1)c1ccc2c(c1)OCO2 [Example 165] |
| 0.7 nM | COc1ccc(C2(C(=O)NC(Cc3ccc(NC(=O)c4c(Cl)cccc4Cl)cc3)C(=O)O)CCCCC2)cc1 (stereo not shown) [Example 103] |
| 0.95 nM | COc1ccc(C2(C(=O)NC(Cc3ccc(NC(=O)CCN4CCCCC4)cc3)C(=O)O)CCCCC2)cc1 (stereo not shown) [Example 102] |
| 0.82 nM | COc1ccc(CC2(C(=O)NC(Cc3ccc(NC(=O)c4c(Cl)cccc4Cl)cc3)C(=O)O)CCCC2)cc1OC (stereo not shown) [Example 54] |

| Molecule | IC50 |
| --- | --- |
| CC1(C(=O)N[C@@H](Cc2ccc(NC(=O)c3ccnc4ccccc34)cc2)C(=O)O)CC1(Cl)Cl (stereo partly drawn) [Example 64, N-[(2,2-Dichloro-1-methylcyclopropyl)carbonyl]-4-[(4-quinolinylcarbonyl)amino]-L-phenylalanine] | 3 nM |
| COc1ccc(CC2(C(=O)N[C@@H](Cc3ccc(N4C(=O)c5ccccc5C4=O)cc3)C(=O)O)CCCC2)cc1 [Example 110] | 8.2 nM |
| COc1ccc(CC2(C(=O)N[C@@H](Cc3ccc(N4C(=O)c5ccncc5C4=O)cc3)C(=O)O)CCCC2)cc1 [Example 109, 4-(2,3-Dihydro-1,3-dioxo-1H-pyrrolo[3,4-c]pyridin-2-yl)-N-[[1-[(4-methoxyphenyl)methyl]cyclopentyl]carbonyl]-L-phenylalanine] | 62 nM |
| O=C(Nc1ccc(C[C@H](NC(=O)C2(c3ccccc3)CCCC2)C(=O)O)cc1)c1ccnc2ccccc12 [Example 75] | 3.8 nM |
| 4-[[(4-Cyano-4-phenyl-1-piperidinyl)carbonyl]amino]-L-phenylalanine on Wang Resin [Example 116] | 0.88 nM |
| Cc1ccc([N+](=O)[O-])cc1C(=O)Nc1ccc(C[C@H](NC(=O)C2(Cc3ccccc3)CCCC2)C(=O)O)cc1 [Example 36, 4-[[(2-Methyl-5-nitrophenyl)carbonyl]amino]-N-[[1-(phenylmethyl)cyclopentyl]carbonyl]-L-phenylalanine] | 4.6 nM |
| COc1ccc(CC2(C(=O)N[C@@H](Cc3ccc(NC(=O)c4cc([N+](=O)[O-])ccc4C)cc3)C(=O)O)CCCC2)cc1 [Example 42, N-[[1-[(4-Methoxyphenyl)methyl]cyclopentyl]carbonyl]-4-[[(2-methyl-5-nitrophenyl)carbonyl]amino]-L-phenylalanine] | 0.61 nM |
